Laboratory results from patent US20240108634A1, “COMPOSITIONS AND METHODS FOR INHIBITING YAP” (The United States Government as represented by the …, priority 2021, published 2024).

What was measured:
CTGF & Cyr61 expression = experiment: Real time RT-PCR of YAP-target genes CTGF and Cyr61 in GBM cells; type: cell-based, human; details: LN229 and GBM39 cells, 18 h
Description: Levels of total YAP were determined via ELISA. […] Immunoprecipitates were immunoblotted for the indicated proteins. […] Cells were treated with the indicated concentrations of inhibitor for 18 h and mRNA extracted for real time RT-PCR analyses. Measurements were performed in quadruplicate and means and+S.D. are shown. […] Cells were treated with (+) or without (−) NSC682769 (100 nM, 18 h) and harvested and separated into cytoplasmic and nuclear cellular fractions. Cytoplasmic versus nuclear material was subsequently immunoblotted for the indicated proteins. […] Values in top right corner of panels correspond to the percentage of nuclear localized YAP. […]
Protein and mRNA analyses, immunoprecipitation, in vitro bead-coupled inhibitor binding assays and HPLC analyses. […] Antigen-antibody complexes were detected using appropriate horseradish peroxidase-conjugated secondary antibodies (GE Healthcare) and enhanced chemiluminescence (Amersham ECL Prime). […] For quantitative RT-PCR, extraction of RNA was performed using Trizol® (Life Technologies). Total RNA was then quantified and integrity assessed using an Agilent 2100 Bioanalyzer (Agilent Technology). […] SYBR® Green quantitative PCR (Millipore Sigma) was performed in triplicate in 96-well optical plates on an ABI Prism 7000 Sequence Detection System (Life Technologies) according to the manufacturer's instructions. […]

LN229 and GBM39 cells = experiment: Annexin V-FITC/PI apoptosis by flow cytometry; type: cell-based, human; details: LN229 and GBM39, 48 h
From the text: Cells were layered in soft agar to evaluate anchorage-independent growth in the presence of the indicated concentrations of inhibitor and colonies counted following 14 days of growth. Representative crystal violet stained images are shown below. Data represent mean+S.D. of three independent experiments. […] Cells were placed in Boyden chambers and allowed to migrate towards BSA (white bars), vitronectin (light yellow bars), or fibronectin (dark yellow bars) (*, P<0.05; n=3). […] Representative crystal violet stained images are shown (200×). Data represent mean+S.D. of three independent experiments. […] Graphical data shown below represent mean+S.D. (late apoptosis; annexin V-positive, PI-positive) of three independent experiments.
Cell proliferation, clonogenic, migration, invasion and apoptosis assays. Cell proliferation was determined via Cell Titer-Glo® luminescent cell assays (Promega). Clonogenic assays were done by plating a total of 1,000 cells per well in 24-well plates in a total volume of 400 μL using a two-layered soft agar system as previously described (Masri J, et al. (2007) Cancer Res 67: 11712-11720). Cell migration assays were conducted using precoated modified Boyden chambers as previously described (Benavides-Serrato A, et al. (2017) PLoS One 12: e0176599). […]

COc1ccc(-c2cc(-c3ccccc3)nc3c2CC(=O)Nc2ccccc2-3)cc1OC [NSC682769]
CTGF and Cyr61 transcripts (CTGF & Cyr61 expression): downregulated | Apoptosis (LN229 and GBM39 cells): enhanced
